Patent US9073821B2, “Hydroxamic acid derivative” (priority 2010, dated 2015)

These molecules were tested against Pseudomonas aeruginosa LpxC enzyme (Pseudomonas aeruginosa (strain ATCC 15692 / DSM 22644 / CIP 104116 / JCM 14847 / LMG 12228 / 1C / PRS 101 / PAO1), UniProt P47205) (assay: biochemical). Conditions: class symbols A/B/C by IC50; Table 3; read-out: Enzyme inhibitory activity (inhibitory activity on Pseudomonas aeruginosa LpxC enzyme).
Type: biochemical
For `CNC(=O)C(C(=O)NO)N(C)C(=O)c1ccc(C#Cc2ccc(CN(C)Cc3ccccc3)cc2)cc1` (centres unmarked) [Compound 495, 2-[({4-[(4-{[benzyl(methyl)amino]methyl}phenyl)ethynyl]phenyl}carbonyl)(methyl)amino]-N-hydroxy-N′-methylpropanediamide], the IC50 was < 10 nM.

Same assay, conditions: inhibitory activity on Pseudomonas aeruginosa LpxC enzyme, class symbols A/B/C; read-out: Enzyme inhibitory activity
For `CNC(=O)C(C(=O)NO)N(C)C(=O)c1ccc(C#Cc2ccc(CN(C)C3CCCCC3)cc2)cc1` (centres unmarked) [Compound 327, 2-[({4-[(4-{[cyclohexyl(methyl)amino]methyl}phenyl)ethynyl]phenyl}carbonyl)(methyl)amino]-N-hydroxy-N′-methylpropanediamide], the IC50 was 10 to 100 nM. `CCC(F)(F)c1ccc(-c2ccc(C(=O)N(C)C(C(=O)NC)C(=O)NO)cc2)cc1` (centres unmarked) [Compound 251, 2-[{[4′-(1,1-difluoropropyl)biphenyl-4-yl]carbonyl}(methyl)amino]-N-hydroxy-N′-methylpropanediamide] was tested, and the IC50 was < 10 nM. In the case of `CNC(=O)C(C(=O)NO)N(C)C(=O)c1ccc(-c2ccc(OCc3ccc(CN4CCOCC4)cc3)cc2)cc1` (centres unmarked) [Compound 91, N-hydroxy-N′-methyl-2-{methyl[(4′-{[4-(morpholin-4-ylmethyl)benzyl]oxy}biphenyl-4-yl)carbonyl]amino}propanediamide], the IC50 is reported as < 10 nM. `CNC(=O)C(C(=O)NO)N(C)C(=O)c1ccc(-c2ccc(OCC(F)CN3CCOCC3)cc2)cc1` (centres unmarked) [Compound 283, 2-[({4′-[2-fluoro-3-(morpholin-4-yl)propoxy]biphenyl-4-yl}carbonyl)(methyl)amino]-N-hydroxy-N′-methylpropanediamide] was tested, and the IC50 was < 10 nM. For `CNC(=O)C(C(=O)NO)N(C)C(=O)c1ccc(-c2ccc(NCC3CC3CNc3ccccc3)cc2)cc1` (centres unmarked) [Compound 103, N-hydroxy-N′-methyl-2-[methyl({4′-[({2-[(phenylamino)methyl]cyclopropyl}methyl)amino]biphenyl-4-yl}carbonyl)amino]propanediamide], the IC50 was < 10 nM. `CNC(=O)C(C(=O)NO)N(C)C(=O)c1ccc(-c2ccc3ccn(C)c3c2)cc1` (centres unmarked) [Compound 36, N-hydroxy-N′-methyl-2-{methyl[4-(1-methyl-1H-indol-6-yl)benzoyl]amino}propanediamide] was tested, and the IC50 was < 10 nM. With `CNC(=O)C(C(=O)NO)N(C)C(=O)c1ccc(-c2ccc3[nH]ccc3c2)cc1` (centres unmarked) [Compound 201, N-hydroxy-2-{[4-(1H-indol-5-yl)benzoyl](methyl)amino}-N′-methylpropanediamide] the IC50 was < 10 nM. In the case of `CNC(=O)C(NC(=O)c1ccc(-c2ccc(OCCO)cc2)cc1)C(=O)NO` (centres unmarked) [Compound 113, N-hydroxy-2-({[4′-(2-hydroxyethoxy)biphenyl-4-yl]carbonyl}amino)-N′-methylpropanediamide], the IC50 is reported as < 10 nM. In the case of `CCNc1ccc(-c2ccc(C(=O)N(C)C(C(=O)NC)C(=O)NO)cc2)cc1` (centres unmarked) [Compound 32, 2-[{[4′-(ethylamino)biphenyl-4-yl]carbonyl}(methyl)amino]-N-hydroxy-N′-methylpropanediamide], the IC50 is reported as < 10 nM. `CNC(=O)C(C(=O)NO)N(C)C(=O)c1ccc(-c2ccc(OCc3ccc(C(=O)O)cc3)cc2)cc1` (centres unmarked) [Compound 98, 4-{[(4′-{[1-(hydroxyamino)-3-(methylamino)-1,3-dioxopropan-2-yl](methyl)carbamoyl}biphenyl-4-yl)oxy]methyl}benzoate] gave an IC50 of 10 to 100 nM. With `CNC(=O)C(C(=O)NO)N(C)C(=O)c1ccc(-c2cnc3ccccc3c2)cc1` (centres unmarked) [Compound 192, N-hydroxy-N′-methyl-2-{methyl[4-(quinolin-3-yl)benzoyl]amino}propanediamide] the IC50 was 10 to 100 nM. For `CNC(=O)[C@@](C)(C(=O)NO)N(C)C(=O)c1ccc(C#Cc2ccc(CCN3CCCOCC3)cc2)cc1` [Compound 438, (2S)-N-hydroxy-N′,2-dimethyl-2-{methyl[4-({4-[2-(1,4-oxazepan-4-yl)ethyl]phenyl}ethynyl)benzoyl]amino}propanediamide], the IC50 was < 10 nM. For `CN(C(=O)c1ccc(-c2ccccc2)cc1)C(C(=O)NO)C(=O)NC1CC1` (centres unmarked) [Compound 175, 2-[(biphenyl-4-ylcarbonyl)(methyl)amino]-N-cyclopropyl-N′-hydroxypropanediamide], the IC50 was > 100 nM.
